How the values were obtained:
[1] = Solubility of benzyl hemiformal in B7 diesel fuel (petrodiesel with 7% by volume of biodiesel); format: physicochemical; settings: for Solubility of benzyl hemiformal in B7 diesel fuel: undiluted BHF
Excerpt: 2) Benzyl Hemiformal—Solubility in B7 Diesel Fuel (Petrodiesel with 7% by Volume of Biodiesel)

[2] = Solubility of benzyl hemiformal in petrodiesel without biodiesel content; format: physicochemical; settings: for Solubility of benzyl hemiformal in petrodiesel 100%: undiluted BHF stirred into petrodiesel
Protocol: 1) Benzyl Hemiformal—Solubility in Petrodiesel without Biodiesel Content
While stirring, BHF was mixed with petrodiesel in 0.01% steps. The following solubilities of BHF in petrodiesel were determined: […]

Solubility of benzyl hemiformal in B7 diesel fuel ([1]; 0.01 % BHF): dissolved to give clear solution
Solubility of benzyl hemiformal in B7 diesel fuel ([1]; 0.02 % BHF): dissolved to give clear solution
Solubility of benzyl hemiformal in B7 diesel fuel ([1]; 0.03 % BHF): undissolved fractions
Solubility of benzyl hemiformal in B7 diesel fuel ([1]; 0.04 % BHF): undissolved fractions
Amount of undiluted BHF that can be incorporated into B7 diesel fuel to give a clear solution ([1]; B7 diesel fuel): approx. 200 ppm
Solubility of benzyl hemiformal in petrodiesel 100% ([2]; 0.01 % BHF): dissolved to give clear solution
Solubility of benzyl hemiformal in petrodiesel 100% ([2]; 0.02 % BHF): dissolved to give clear solution
Solubility of benzyl hemiformal in petrodiesel 100% ([2]; 0.03 % BHF): undissolved fractions
Solubility of benzyl hemiformal in petrodiesel 100% ([2]; 0.04 % BHF): undissolved fractions
Solubility of BHF in petrodiesel (in words) ([2]; room temperature): only poorly soluble
Amount of undiluted BHF that can be incorporated into petrodiesel to give a clear solution ([2]; undiluted BHF, petrodiesel without biodiesel): approx. 200 ppm
Structure (SMILES): OCOCc1ccccc1 [benzyl hemiformal]

— patent publication US11549075B2, “Benzyl hemiformal-containing biodiesel mixtures” (LANXESS Deutschland GmbH, priority 2019, dated 2023)
